Reference: patent publication US7153865B2, “N-type calcium channel antagonists for the treatment of pain” (Astrazeneca AB, priority 2001, dated 2006)

How the values were obtained:
[1] = system: formalin-induced nocifensive behaviours; assay: Formalin test; type: in vivo, rats; conditions: dose 60, time 40, route IP (units of dose and time not given)
[2] = target: N-type calcium channel (Homo sapiens, UniProt Q00975); assay: N-channel FLIPR (Fluorescent Laser Imaging Plate Reader) assay; type: cell-based; conditions: differentiated IMR32 cells, 80 mM K+ stimulus; unit inferred
[3] = system: NK-1 receptor; conditions: phenylbenzoquinone-induced writhing and formalin test; compared with morphine; cited from earlier work

Chain of N-type calcium channel (Q00975 whole entry): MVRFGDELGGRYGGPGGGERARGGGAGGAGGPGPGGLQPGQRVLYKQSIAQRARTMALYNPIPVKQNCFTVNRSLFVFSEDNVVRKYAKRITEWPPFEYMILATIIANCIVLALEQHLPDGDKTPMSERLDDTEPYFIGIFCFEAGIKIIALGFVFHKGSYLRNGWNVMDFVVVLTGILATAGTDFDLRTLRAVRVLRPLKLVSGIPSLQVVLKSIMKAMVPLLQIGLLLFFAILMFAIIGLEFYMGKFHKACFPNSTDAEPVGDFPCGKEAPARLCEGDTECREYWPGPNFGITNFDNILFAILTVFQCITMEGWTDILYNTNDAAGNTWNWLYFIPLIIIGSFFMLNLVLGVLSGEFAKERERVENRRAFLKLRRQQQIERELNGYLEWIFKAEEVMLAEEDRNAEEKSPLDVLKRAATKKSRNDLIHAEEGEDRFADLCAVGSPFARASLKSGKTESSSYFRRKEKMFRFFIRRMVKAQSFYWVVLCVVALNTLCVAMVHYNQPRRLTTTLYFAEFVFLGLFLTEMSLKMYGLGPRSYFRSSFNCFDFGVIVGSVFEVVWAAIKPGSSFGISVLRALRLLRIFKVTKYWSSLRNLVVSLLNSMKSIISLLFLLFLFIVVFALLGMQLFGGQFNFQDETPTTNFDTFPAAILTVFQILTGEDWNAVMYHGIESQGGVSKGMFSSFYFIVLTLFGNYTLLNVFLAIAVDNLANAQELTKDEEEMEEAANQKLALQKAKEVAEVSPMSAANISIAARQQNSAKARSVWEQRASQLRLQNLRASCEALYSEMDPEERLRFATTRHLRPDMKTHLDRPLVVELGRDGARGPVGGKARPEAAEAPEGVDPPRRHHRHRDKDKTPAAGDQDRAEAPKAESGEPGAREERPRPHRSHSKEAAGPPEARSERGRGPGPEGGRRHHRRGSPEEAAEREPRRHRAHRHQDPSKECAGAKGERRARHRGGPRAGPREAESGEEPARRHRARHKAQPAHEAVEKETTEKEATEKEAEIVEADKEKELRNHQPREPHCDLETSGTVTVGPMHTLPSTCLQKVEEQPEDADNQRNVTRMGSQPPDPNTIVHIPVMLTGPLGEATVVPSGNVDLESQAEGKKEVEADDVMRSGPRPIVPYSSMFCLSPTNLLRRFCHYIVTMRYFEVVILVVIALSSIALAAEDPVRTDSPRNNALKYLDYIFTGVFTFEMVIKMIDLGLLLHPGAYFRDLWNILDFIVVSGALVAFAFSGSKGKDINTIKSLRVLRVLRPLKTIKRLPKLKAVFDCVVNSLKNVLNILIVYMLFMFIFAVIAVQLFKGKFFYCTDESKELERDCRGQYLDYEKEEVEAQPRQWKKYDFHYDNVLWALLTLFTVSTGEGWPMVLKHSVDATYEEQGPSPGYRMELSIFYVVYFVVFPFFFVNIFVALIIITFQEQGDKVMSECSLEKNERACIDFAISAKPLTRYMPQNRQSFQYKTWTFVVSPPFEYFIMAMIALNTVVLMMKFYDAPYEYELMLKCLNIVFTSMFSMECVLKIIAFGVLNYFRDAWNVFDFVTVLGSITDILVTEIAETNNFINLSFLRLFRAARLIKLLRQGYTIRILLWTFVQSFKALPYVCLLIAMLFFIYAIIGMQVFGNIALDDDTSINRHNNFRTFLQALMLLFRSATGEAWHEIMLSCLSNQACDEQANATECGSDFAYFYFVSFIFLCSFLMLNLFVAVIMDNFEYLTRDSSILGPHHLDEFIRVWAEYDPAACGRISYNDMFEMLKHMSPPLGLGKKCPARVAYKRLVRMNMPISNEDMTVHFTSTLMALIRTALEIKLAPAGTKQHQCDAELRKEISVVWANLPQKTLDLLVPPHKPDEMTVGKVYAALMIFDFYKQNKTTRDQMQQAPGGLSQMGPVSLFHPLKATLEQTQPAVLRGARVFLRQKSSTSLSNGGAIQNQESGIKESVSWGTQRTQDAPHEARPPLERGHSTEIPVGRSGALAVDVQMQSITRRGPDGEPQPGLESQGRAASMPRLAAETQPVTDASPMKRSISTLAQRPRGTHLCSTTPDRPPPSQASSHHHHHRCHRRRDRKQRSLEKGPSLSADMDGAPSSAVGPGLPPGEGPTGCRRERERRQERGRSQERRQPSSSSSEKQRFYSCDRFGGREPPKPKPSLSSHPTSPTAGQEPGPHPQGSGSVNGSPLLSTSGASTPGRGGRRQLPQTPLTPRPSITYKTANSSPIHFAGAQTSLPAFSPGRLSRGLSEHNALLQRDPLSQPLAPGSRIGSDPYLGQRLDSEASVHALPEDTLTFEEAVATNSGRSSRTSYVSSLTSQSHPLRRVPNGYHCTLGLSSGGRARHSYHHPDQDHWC
Chain of N-type calcium channel (P54284 whole entry partner): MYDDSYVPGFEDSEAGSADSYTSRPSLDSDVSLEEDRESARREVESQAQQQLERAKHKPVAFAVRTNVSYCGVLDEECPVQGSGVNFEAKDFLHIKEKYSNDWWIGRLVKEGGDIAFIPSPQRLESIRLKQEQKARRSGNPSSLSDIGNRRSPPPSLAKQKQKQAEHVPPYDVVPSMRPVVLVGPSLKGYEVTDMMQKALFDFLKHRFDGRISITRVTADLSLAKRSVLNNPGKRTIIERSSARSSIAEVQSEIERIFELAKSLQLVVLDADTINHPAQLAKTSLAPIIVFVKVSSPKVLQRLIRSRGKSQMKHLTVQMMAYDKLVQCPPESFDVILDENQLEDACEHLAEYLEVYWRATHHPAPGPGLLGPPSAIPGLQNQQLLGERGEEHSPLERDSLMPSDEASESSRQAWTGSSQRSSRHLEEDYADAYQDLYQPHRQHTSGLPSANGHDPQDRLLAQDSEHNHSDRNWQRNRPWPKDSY
Chain of N-type calcium channel (P54289 25-956 partner limits assumed): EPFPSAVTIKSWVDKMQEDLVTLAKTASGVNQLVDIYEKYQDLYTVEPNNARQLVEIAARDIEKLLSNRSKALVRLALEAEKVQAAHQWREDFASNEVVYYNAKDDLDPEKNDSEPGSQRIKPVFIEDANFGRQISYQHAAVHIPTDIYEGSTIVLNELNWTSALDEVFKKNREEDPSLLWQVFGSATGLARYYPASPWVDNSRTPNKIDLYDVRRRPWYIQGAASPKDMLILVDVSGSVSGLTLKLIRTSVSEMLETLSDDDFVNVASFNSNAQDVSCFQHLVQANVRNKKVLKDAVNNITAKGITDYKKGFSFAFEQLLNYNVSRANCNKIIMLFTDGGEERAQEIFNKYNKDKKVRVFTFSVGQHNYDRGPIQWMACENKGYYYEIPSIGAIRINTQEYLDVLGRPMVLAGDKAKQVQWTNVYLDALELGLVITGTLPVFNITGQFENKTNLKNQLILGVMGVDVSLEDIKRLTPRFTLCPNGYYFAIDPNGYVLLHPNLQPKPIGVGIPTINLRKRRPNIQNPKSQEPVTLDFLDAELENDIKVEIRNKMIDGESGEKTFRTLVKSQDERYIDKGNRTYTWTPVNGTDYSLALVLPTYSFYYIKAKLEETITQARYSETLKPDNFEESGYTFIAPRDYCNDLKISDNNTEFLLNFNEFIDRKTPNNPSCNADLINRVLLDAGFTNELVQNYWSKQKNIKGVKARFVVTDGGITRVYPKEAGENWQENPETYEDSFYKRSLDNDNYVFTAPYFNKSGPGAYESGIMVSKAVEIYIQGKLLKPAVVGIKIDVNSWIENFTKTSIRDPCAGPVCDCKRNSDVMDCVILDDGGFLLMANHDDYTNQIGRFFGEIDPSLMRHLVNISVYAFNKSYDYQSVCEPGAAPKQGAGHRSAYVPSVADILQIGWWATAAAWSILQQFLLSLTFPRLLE
Chain of N-type calcium channel (P54289 957-1103 partner limits assumed): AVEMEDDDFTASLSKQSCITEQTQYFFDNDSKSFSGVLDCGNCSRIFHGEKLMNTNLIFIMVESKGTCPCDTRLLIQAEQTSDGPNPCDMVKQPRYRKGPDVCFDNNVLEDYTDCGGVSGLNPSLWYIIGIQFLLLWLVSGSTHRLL

Structure (SMILES)	IC50 [2] [µM]	other results
Clc1ccc(Nc2cc(Nc3ccccc3N3CCOCC3)nc3ccccc23)cc1Cl [Example 2, N4-(3,4-Dichloro-phenyl)-N2-(2-morpholin-4-yl-phenyl)-quinoline-2,4-diamine]	–	Formalin test % inhibition (dose, time route) [1]: 42 (60, 40, IP) %
Nc1ccccc1Nc1cc(Nc2ccc(Cl)c(Cl)c2)c2cccc(F)c2n1 [Example 14, N2-(2-Amino-phenyl)-N4-(3,4-dichloro-phenyl)-8-fluoro-quinoline-2,4-diamine]	4.01	–
Nc1ccccc1Nc1cc(Nc2ccc(Cl)c(Cl)c2)c2ccccc2n1 [Example 27, N2-(2-amino-phenyl)-N4-(3,4-dichloro-phenyl)-quinoline-2,4-diamine]	9.82	–
COc1ccccc1CC(=N)N1C[C@@H]2C(=O)CCC(c3ccccc3)(c3ccccc3)[C@@H]2C1 [RP 67,580]	–	analgesia in chemo-nociception tests [3]: produced analgesia with potency comparable to that of morphine
